The results in this text go back to publication PMC5338263, “GS-5734 and its parent nucleoside analog inhibit Filo-, Pneumo-, and Paramyxoviruses” (Scientific Reports, 2017).

The test system of one series is NiV M-1999. In words: microbe, parasite or virus in culture. The format is cell-based, Nipah virus. To be noted: Henipavirus nipahense, HeLa.
For another series, the system named is Arena. In words: Potency by virus family (Fig. 2), Arena. To be noted: read-out: potency class (EC50). The format is cell-based.
The subject of the next series is HeV 1996 (Hendra virus). In words: in vitro. Particulars: human.
Series [1] deals with ANDV Chile 9717869 (Andes virus). In words: in vitro. To be noted: human.
Series [2] concerns LASV Josiah (Lassa virus). In words: in vitro. Particulars: human.
Series [3] deals with OHFV Bogoluvovska (Omsk Hemorrhagic Fever virus). In words: in vitro. Particulars: human.
Series [4] in a line: Cell viability assay (CellTiter-Glo 2.0), A549. Particulars: human, uninfected A549 cells. In general terms: ATP-based viability assays read luminescence as a measure of living cells.
A further series relates to hMPV Rec. CAN97-83-GFP. In words: microbe, parasite or virus in culture. It is filed as cell-based. To be noted: human metapneumovirus, Vero.
The next series relates to NiV B-2004. In words: microbe, parasite or virus in culture. Particulars: Henipavirus nipahense, HeLa.
In another series the test system is MV EZ vaccine. In words: microbe, parasite or virus in culture. Particulars: Measles morbillivirus, HeLa.

As usually defined, the EC50 is the concentration giving half of the maximal effect. Usually CC50 stands for the concentration at which the toxic effect on the cells reaches its halfway point. High values mean better tolerance by the cells, low ones harm at low concentration. Consider `CCC(CC)COC(=O)[C@H](C)N[P@](=O)(OC[C@H]1O[C@@](C#N)(c2ccc3c(N)ncnn23)[C@H](O)[C@@H]1O)Oc1ccccc1` [GS-5734], for which the half-maximal effective concentration (EC50) in the series with NiV M-1999 was 65.5 ± 16 nM; in the series with Arena it was greater than 4 µM; in the series with EBOV Rec. Mayinga-Gluc, 21 nM. Further, the selectivity ratio with HeV 1996 (Hendra virus) turned out to be 150; in series [1] it was 1.4; in series [2], 2.2; in series [3], 8.3. This compound came in with a CC50 at 72 h in series [4] greater than 10 µM.

The EC90 is the concentration needed for an effect of 90%. Higher therefore signals a need for much substance. Regarding `N#C[C@@]1(c2ccc3c(N)ncnn23)O[C@H](CO)[C@@H](O)[C@H]1O` [Nuc], the values for the EC50 in the series with hMPV Rec. CAN97-83-GFP, with MuV IA 2006 and with MV EZ vaccine were 730 nM, 9.7 µM and 2010 nM, respectively. The EC90 in the series on hMPV Rec. CAN97-83-GFP was determined as 1700 nM; with NiV B-2004, 2200 nM; with MV EZ vaccine, 5.1 µM.
